From patent US6338296B1, “Release device for slowly releasing sprout inhibitor into packages of potatoes” (priority 1996, dated 2002) come the findings set out here.

In this test the test system is potatoes. The test is described as follows: sprout inhibition in a ventilated package of potatoes with a pouch of silica gel carrying 1,4-DMN. The test is classed as in vivo, potato. The source says:
A package containing ten pounds of potatoes (approximately 5 kg) can be treated according to the instant invention with about 5 grams of silica gel contacted with 2 grams of 1,4-DMN. The substantially saturated silica gel may be placed in a pouch made of cotton fabric having a tight weave. The weave is sufficiently tight that the minute, generally less than 0.5 mm and often less than 0.2 mm, particles are retained in the fabric pouch.
The potatoes, in a plastic bag with numerous ventilation holes, may be allowed to be in a storage room without air conditioning. A single pouch may be placed in the bag with the potatoes.
For example, amounts of DMN from about 0.02 gram to about 1.0 gram per pound of potatoes (˜0.5 kg) may be effectively used. For various reasons, lower amounts are desirable, consistent with effectiveness for the amount of potatoes, volume of voids, length of residence time of the potatoes in the package and range of temperatures to be experienced.

As for `Cc1ccc(C)c2ccccc12` [1,4-DMN, 1,4-dimethyl naphthalene], the preclusion of sprouting entry (0.2 grams of 1,4-DMN per one pound (~0.5 kg) of potatoes) is “adequately precludes sprouting”. Also, the “sprouting after 30 days” value (ten pounds of potatoes in ventilated plastic bag, one cotton pouch with about 5 grams silica gel and 2 grams 1,4-DMN, unconditioned store room, 30 days) is listed as “No significant sprouting”.
